The record followed here is US8598175B2, “Heteroarylamide pyrimidone derivatives” (Sanofi, priority 2007, dated 2013).

pIC50: −log10 of the molar value.

One data set concerns the target GSK3β (Homo sapiens, UniProt P49841). Nature of the data set: Inhibitory activity against GSK3β (33P-ATP phosphorylation of prephosphorylated GS1 peptide, two protocols). Format: biochemical. The settings on record: first or second protocol not specified. The protocol: Inhibitory Activity of the Medicament of the Present Invention Against GSK3β
Two different protocols can be used.
In a first protocol: 7.5 μM of prephosphorylated GS1 peptide and 10 μM ATP (containing 300,000 cpm of ^33P-ATP) were incubated in 25 mM Tris-HCl, pH 7.5, 0.6 mM DTT, 6 mM MgCl2, 0.6 mM EGTA, 0.05 mg/ml BSA buffer for 1 hour at room temperature in the presence of GSK3beta (total reaction volume: 100 microliters).
In a second protocol: 4.1 μM of prephosphorylated GS1 peptide and 42 μM ATP (containing 260,000 cpm ^33P-ATP) were incubated in 80 mM Mes-NaOH, pH 6.5, 1 mM Mg acetate, 0.5 mM EGTA, 5 mM 2-mercaptoethanol, 0.02% Tween 20, 10% glycerol buffer for 2 hours at room temperature in the presence of GSK3beta.
Inhibitors were solubilized in DMSO (final solvent concentration in the reaction medium, 1%).
The reaction was stopped with 100 microliters of a solution made of 25 g polyphosphoric acid (85% P2O5), 126 ml 85% H3PO4, […] to 500 ml and then diluted to 1:100 before use. An aliquot of the reaction mixture was then transferred to Whatman P81 cation exchange filters and rinsed with the solution described above. Incorporated ^33P radioactivity was determined by liquid scintillation spectrometry.
The phosphorylated GS-1 peptide had the following sequence: NH2-[…](P)EDEE-COOH. SEQ ID NO: 1 (Woodgett, J. R. (1989) Analytical Biochemistry 180, 237-241.

GSK3β, sequence (P49841 whole entry): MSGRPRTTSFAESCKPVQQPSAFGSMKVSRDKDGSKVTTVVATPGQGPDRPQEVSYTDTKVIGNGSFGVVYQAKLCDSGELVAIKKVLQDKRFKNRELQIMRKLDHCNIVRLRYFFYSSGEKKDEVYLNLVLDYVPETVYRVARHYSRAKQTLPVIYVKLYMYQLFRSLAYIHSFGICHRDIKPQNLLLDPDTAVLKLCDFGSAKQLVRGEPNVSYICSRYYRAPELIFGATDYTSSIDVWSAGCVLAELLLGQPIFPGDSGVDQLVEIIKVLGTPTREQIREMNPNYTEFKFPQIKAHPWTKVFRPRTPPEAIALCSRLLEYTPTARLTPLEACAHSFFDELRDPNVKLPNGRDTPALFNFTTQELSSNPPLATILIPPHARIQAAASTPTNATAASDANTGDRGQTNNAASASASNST

In general, pIC50 refers to the negative decadic logarithm of the IC50, by convention in mol/L. A higher pIC50 goes with a small IC50. The term melting point denotes the temperature, or range, at which the solid turns liquid. Consider `Cn1c(CNC(=O)c2ccc3ncccc3n2)nc(-c2ccncn2)cc1=O` [compound 4, [1,5]Naphthyridine-2-carboxylic acid (1-methyl-6-oxo-1,6-dihydro-[4,4]bipyrimidinyl-2-ylmethyl)-amide], for which the melting point was in the range of 317 to 319 °C. The pIC50 against GSK3β was 8.30.
